{"source": "patent US7579475B2", "about": "“S-(-)-amlodipine nicotinate and process for the preparation thereof” (Hanlim Pharmaceutical Co., Ltd., priority 2002, dated 2009)", "key": {"[1]": {"tested_on": "spontaneously hypertensive rats (SHRs)", "assay": "In vivo anti-hypertensive activity in spontaneously hypertensive rats (tail-cuff systolic blood pressure)", "design": "species or system rat", "conditions": "SHR; for ED20 (amount necessary for 20% decrease in the blood pressure) / Intensity (reverse ratio of ED20 values relative to amlodipine nicotinate) / Maximal anti-hypertensive effect (change of systolic blood pressure) / Intensity (maximal effect of S-(−)-amlodipine nicotinate to maximal effect of amlodipine nicotinate): oral; for Maximal anti-hypertensive effect (change of systolic blood pressure): mean % ± S.E.M.; for Effect on blood pressure (in words): oral, 1, 3 and 10 mg/kg", "experimental": "Male SHRs (Charles Rever Co., Japan) aged 13-14 weeks were used.\nThe SHRs having a systolic blood pressure over 170 mmHg were divided into 7 groups, i.e., Test Groups 1 to 3 (for amlodipine nicotinate), Test Groups 4 to 6 (for S-(−)-amlodipine nicotinate) and a Control Group. Each Test Group and Control Group consisted of 6-8 SHRs (n=6-8).\nThe test compounds were dissolved in distilled water to prepare test solutions immediately prior to administration. The test solutions of amlodipine nicotinate and S-(−)-amlodipine nicotinate were prepared by dissolving 1, 3, and 10 mg/kg in distilled water (0.5 ml/100 g rat), respectively, and then administered orally to each Test Group. The vehicle (distilled water) was administered to Control Group.\nThe systolic blood pressure was measured with Multichannel 8000 (TSE Co., Germany), using a tail-cuff method. That is, the systolic blood pressures of a tail artery of each rat were measured before the administration of the test solutions and after 2, 4, 6, 8, 10, and 24 hours from the administration thereof. In order to facilitate the measurement of blood pressures, the test animals of each Group underwent warming at 37° C. for about 10 minutes before the measurements.\nStatistical analysis of the test results were conducted by an unpaired t-test and ANOVA (one-way analysis of variance) with Sigma Stat program (Jandel Co., USA). The secondary evaluations were conducted by a Dunnett's multiple comparison test."}, "[2]": {"assay": "Photostability test (incandescent lamp, 3 weeks)", "experimental": "1.0 g of S-(−)-amlodipine besylate prepared, using S-(−)-amlodipine, in accordance with U.S. Pat. No. 4,879,303 and 1.0 g of S-(−)-amlodipine nicotinate dihydrate obtained in Example 1, which were placed in glass schales (100×20 mm), were exposed at 25-30° C. for 3 weeks under an incandescent lamp (220V, 100 W) that was placed at 30 cm above the samples."}, "[3]": {"conditions": "listed as S-(−)-Amlodipine nicotinate, dihydrate"}}}
{"smiles": "CCOC(=O)C1=C(COCCN)NC(C)=C(C(=O)OC)[C@@H]1c1ccccc1Cl.O=C(O)c1cccnc1", "note": "[amlodipine nicotinate]", "values": [{"measurement": "ED20 (amount necessary for 20% decrease in the blood pressure)", "setting": "[1]", "value": "2.19 ± 0.57", "unit": "mg/kg"}, {"measurement": "Intensity (reverse ratio of ED20 values relative to amlodipine nicotinate)", "setting": "[1]", "value": 1.00}, {"measurement": "Maximal anti-hypertensive effect (change of systolic blood pressure)", "setting": "[1]; 1 mg/kg", "value": "−10.20 ± 2.71", "unit": "%"}, {"measurement": "Maximal anti-hypertensive effect (change of systolic blood pressure)", "setting": "[1]; 3 mg/kg", "value": "−26.8 ± 3.22", "unit": "%"}, {"measurement": "Maximal anti-hypertensive effect (change of systolic blood pressure)", "setting": "[1]; 10 mg/kg", "value": "−40.9 ± 2.08", "unit": "%"}, {"measurement": "Effect on blood pressure (in words)", "setting": "[1]", "value": "dose-dependently reduced blood pressures"}, {"measurement": "ED20 (amount necessary for 20% decrease in the blood pressure)", "setting": "[1]; listed as Amlodipine nicotinate", "value": "2.19 ± 0.57", "unit": "mg/kg"}]}
{"smiles": "CCOC(=O)C1=C(COCCN)NC(C)=C(C(=O)OC)[C@@H]1c1ccccc1Cl.O=S(=O)(O)c1ccccc1", "note": "[S-(−)-amlodipine besylate]", "values": [{"measurement": "Water contents absorbed during the photostability test", "setting": "[2]; 25-30° C., 3 weeks under incandescent lamp", "value": "1.5-2.5"}]}
{"smiles": "CCOC(=O)C1=C(COCCN)NC(C)=C(C(=O)OC)C1c1ccccc1Cl", "note": "(stereo not drawn) [S-(−)-amlodipine nicotinate, S-(−)-amlodipine nicotinate dihydrate]", "values": [{"measurement": "Maximal anti-hypertensive effect (change of systolic blood pressure)", "setting": "[1]; 1 mg/kg", "value": "−12.4 ± 1.73", "unit": "%"}, {"measurement": "Intensity (maximal effect of S-(−)-amlodipine nicotinate to maximal effect of amlodipine nicotinate)", "setting": "[1]; 3 mg/kg", "value": 1.06}, {"measurement": "Maximal anti-hypertensive effect (change of systolic blood pressure)", "setting": "[1]; 3 mg/kg", "value": "−28.3 ± 3.31", "unit": "%"}, {"measurement": "Intensity (maximal effect of S-(−)-amlodipine nicotinate to maximal effect of amlodipine nicotinate)", "setting": "[1]; 10 mg/kg", "value": 1.07}, {"measurement": "Maximal anti-hypertensive effect (change of systolic blood pressure)", "setting": "[1]; 10 mg/kg", "value": "−43.6 ± 1.65", "unit": "%"}, {"measurement": "Effect on blood pressure (in words)", "setting": "[1]", "value": "dose-dependently reduced blood pressures"}, {"measurement": "ED20 (amount necessary for 20% decrease in the blood pressure)", "setting": "[1]; dihydrate", "value": "1.91 ± 0.49", "unit": "mg/kg"}, {"measurement": "Intensity (reverse ratio of ED20 values relative to amlodipine nicotinate)", "setting": "[1]; dihydrate", "value": "about 1.15"}, {"measurement": "ED20 (amount necessary for 20% decrease in the blood pressure)", "setting": "[1]; [3]", "value": "1.91 ± 0.49", "unit": "mg/kg"}, {"measurement": "Intensity (reverse ratio of ED20 values relative to amlodipine nicotinate)", "setting": "[1]; [3]", "value": 1.15}, {"measurement": "Difference in 1H-NMR before and after photostability test", "setting": "[2]", "value": "no significant difference"}, {"measurement": "Photostability (overall conclusion)", "setting": "[2]", "value": "improved photostability"}]}
